# Assay results as given in patent US20070203159A1, “Purine compounds” (priority 2006, published 2007).
# Tested on: not given
# Test: not given
# Conditions: not given
row,Molecule,melting point
1,COc1ccc(Cn2c(Cl)nc3c(-c4ccc(Cl)o4)ncnc32)cc1,166 to 168 °C
2,CCSc1nc(-c2ccco2)c2ncn(Cc3ccc(OC)cc3)c2n1,116 to 117 °C
3,CCCOc1nc(-c2ccco2)c2ncn(Cc3ccc(OC)cc3)c2n1,119 °C
4,COc1ccc(Cn2cnc3c(-c4ccco4)nc(OC(C)C)nc32)cc1,145 to 146 °C
5,CCCCOc1nc(-c2ccco2)c2ncn(Cc3ccc(OC)cc3)c2n1,113 °C
6,COc1ccc(Cn2cnc3c(-c4ccco4)nc(OCc4ccccc4)nc32)cc1,122 °C
7,COc1ccc(Cn2cnc3c(-c4ccco4)nc(I)nc32)cc1,145 to 148 °C
8,COc1ccc(Cn2cnc3c(-c4ccco4)nc(NC(C)=O)nc32)cc1,167 to 168 °C
9,COc1ccc(Cn2cnc3c(-c4ccco4)nc(N(C(C)=O)C(C)=O)nc32)cc1,187 to 189 °C
10,CNc1nc(-c2ccco2)c2ncn(Cc3ccc(OC)cc3)c2n1,144 to 145 °C
11,COc1ccc(Cn2cnc3c(-c4ccco4)nc(N(C)C)nc32)cc1,163 to 164 °C
12,CCOc1nc(-c2ccco2)c2ncn(Cc3ccc(OC)cc3)c2n1,137 to 138 °C
13,CC#Cc1nc(-c2ccco2)c2ncn(Cc3ccc(OC)cc3)c2n1,158 to 160 °C
14,"Clc1ccc(Cn2cnc3c(-c4ccco4)ncnc32)cc1 [Example 27, 9-(4-Chlorophenylmethyl)-6-(2-furyl)-9H-purine]",156 to 159 °C
15,"Clc1ccc(Cn2cnc3c(-c4ccco4)ncnc32)cc1Cl [Example 28, 9-(3,4-Dichlorophenylmethyl)-6-(2-furyl)-9H-purine]",183 to 185 °C
16,"Fc1ccc(Cn2cnc3c(-c4ccco4)ncnc32)cc1 [Example 29, 9-(4-Fluorophenylmethyl)-6-(2-furyl)-9H-purine]",162 to 164 °C
17,"FC(F)(F)c1ccc(Cn2cnc3c(-c4ccco4)ncnc32)cc1 [Example 30, 6-(2-Furyl)-9-(4-trifluoromethylphenylmethyl)-9H-purine]",159 to 161 °C
18,"Cc1ccc(Cn2cnc3c(-c4ccco4)ncnc32)cc1 [Example 31, 6-(2-Furyl)-9-(4-methylphenylmethyl)-9H-purine]",166 to 167 °C
19,"CC(C)(C)c1ccc(Cn2cnc3c(-c4ccco4)ncnc32)cc1 [Example 32, 9-(4-tert-Butylphenylmethyl)-6-(2-furyl)-9H-purine]",185 to 187 °C
20,"COc1cccc(Cn2cnc3c(-c4ccco4)ncnc32)c1 [Example 34, 6-(2-Furyl)-9-(3-methoxyphenylmethyl)-9H-purine]",138 to 139 °C
21,"COc1ccc(Cn2cnc3c(-c4ccco4)ncnc32)cc1C [Example 35, 6-(2-Furyl)-9-(4-methoxy-3-methylphenylmethyl)-9H-purine]",169 to 170 °C
22,"COc1cc(Cn2cnc3c(-c4ccco4)ncnc32)cc(OC)c1OC [Example 36, 6-(2-Furyl)-9-(3,4,5-trimethoxyphenylmethyl)-9H-purine]",195 to 196 °C
23,"FC(F)(F)Oc1ccc(Cn2cnc3c(-c4ccco4)ncnc32)cc1 [Example 37, 6-(2-Furyl)-9-(4-trifluoromethoxyphenylmethyl)-9H-purine]",146 to 147 °C
24,"FC(F)(F)Oc1cccc(Cn2cnc3c(-c4ccco4)ncnc32)c1 [Example 38, 6-(2-Furyl)-9-(3-trifluoromethoxyphenylmethyl)-9H-purine]",133 to 135 °C
25,"CCOc1ccc(Cn2cnc3c(-c4ccco4)ncnc32)cc1 [Example 39, 9-(4-Ethoxyphenylmethyl)-6-(2-furyl)-9H-purine]",165 to 166 °C
26,"c1ccc(COc2ccc(Cn3cnc4c(-c5ccco5)ncnc43)cc2)cc1 [Example 40, 9-(4-Benzyloxyphenylmethyl)-6-(2-furyl)-9H-purine]",145 to 146 °C

row,Molecule,melting point
1,"Oc1ccc(Cn2cnc3c(-c4ccco4)ncnc32)cc1 [Example 41, 6-(2-Furyl)-9-(4-hydroxyphenylmethyl)-9H-purine]",231 to 233 °C
2,"CC(=O)Nc1ccc(Cn2cnc3c(-c4ccco4)ncnc32)cc1 [Example 44, 9-(4-Acetamidophenylmethyl)-6-(2-furyl)-9H-purine]",278 to 280 °C
3,"Nc1ccc(Cn2cnc3c(-c4ccco4)ncnc32)cc1 [Example 45, 9-(4-Aminophenylmethyl)-6-(2-furyl)-9H-purine]",195 to 197 °C
4,"COc1ccc(Cn2cnc3c(-c4ccco4)nc(F)nc32)cc1 [Example 57, 2-Fluoro-6-(2-furyl)-9-(4-methoxyphenylmethyl)-9H-purine]",210 to 215 °C
5,"COc1ccc(Cn2cnc3c(-c4ccco4)nc(N)nc32)cc1 [Example 61, 2-Amino-6-(2-furyl)-9-(4-methoxyphenylmethyl)-9H-purine]",235 to 237 °C (dec.)
6,"COc1ccc(CNc2nc(-c3ccco3)c3ncn(Cc4ccc(OC)cc4)c3n2)cc1 [Example 65, 6-(2-Furyl)-2-(4-methoxyphenylmethylamino)-9-(4-methoxyphenylmethyl)-9H-purine]",153 to 154 °C
7,"COc1ccc(Cn2cnc3c(-c4ccco4)nc(S(C)(=O)=O)nc32)cc1 [Example 70, 6-(2-Furyl)-9-(4-methoxyphenylmethyl)-2-methylsulfonyl-9H-purine]",184 to 185 °C
8,"COc1ccc(Cn2cnc3c(-c4ccco4)nc([N+](=O)[O-])nc32)cc1 [Example 72, 6-(2-Furyl)-9-(4-methoxyphenylmethyl)-2-nitro-9H-purine]",182 to 183 °C
9,"COc1ccc(Cn2cnc3c(-c4ccco4)nc(OC)nc32)cc1 [Example 74, 6-(2-Furyl)-2-methoxy-9-(4-methoxyphenylmethyl)-9H-purine]",167 to 169 °C
10,"COc1ccc(Cn2cnc3c(-c4ccco4)nc(C)nc32)cc1 [Example 76, 6-(2-Furyl)-9-(4-methoxyphenylmethyl)-2-methyl-9H-purine]",127 to 130 °C
11,"CCc1nc(-c2ccco2)c2ncn(Cc3ccc(OC)cc3)c2n1 [Example 77, 2-Ethyl-6-(2-furyl)-9-(4-methoxyphenylmethyl)-9H-purine]",119 to 120 °C
12,"COc1ccc(Cn2cnc3c(-c4ccco4)nc(C(C)C)nc32)cc1 [Example 78, 6-(2-Furyl)-9-(4-methoxyphenylmethyl)-2-(1-methylethyl)-9H-purine]",123 °C
13,"CCCCc1nc(-c2ccco2)c2ncn(Cc3ccc(OC)cc3)c2n1 [Example 79, 2-n-Butyl-6-(2-furyl)-9-(4-methoxyphenylmethyl)-9H-purine]",103 °C
14,"COc1ccc(Cn2cnc3c(-c4ccco4)nc(C4CC4)nc32)cc1 [Example 80, 2-Cyclopropyl-6-(2-furyl)-9-(4-methoxyphenylmethyl)-9H-purine]",115 to 116 °C
15,"C=Cc1nc(-c2ccco2)c2ncn(Cc3ccc(OC)cc3)c2n1 [Example 82, 2-Ethenyl-6-(2-furyl)-9-(4-methoxyphenylmethyl)-9H-purine]",94 to 95 °C
16,"C=C(OCC)c1nc(-c2ccco2)c2ncn(Cc3ccc(OC)cc3)c2n1 [Example 83, 2-(1-Ethoxyvinyl)-6-(2-furyl)-9-(4-methoxyphenylmethyl)-9H-purine]",144 to 145 °C
17,"COc1ccc(Cn2cnc3c(-c4ccco4)nc(-c4ccccc4)nc32)cc1 [Example 84, 6-(2-Furyl)-9-(4-methoxyphenylmethyl)-2-phenyl-9H-purine]",140 to 142 °C
18,"COc1ccc(Cn2cnc3c(-c4ccco4)nc(C(C)=O)nc32)cc1 [Example 86, 2-Acetyl-6-(2-furyl)-9-(4-methoxyphenylmethyl)-9H-purine]",166 to 167 °C
19,"COc1ccc(Cn2cnc3c(-c4ccco4)nc(C#N)nc32)cc1 [Example 87, 6-(2-Furyl)-9-(4-methoxyphenylmethyl)-9H-purine-2-carbonitrile]",205 to 207 °C
20,"C#Cc1nc(-c2ccco2)c2ncn(Cc3ccc(OC)cc3)c2n1 [Example 89, 2-Ethynyl-6-(2-furyl)-9-(4-methoxyphenylmethyl)-9H-purine]",155 °C
21,"COc1ccc(Cn2cnc3c(-c4ccco4)nc(C(F)(F)F)nc32)cc1 [Example 94, 6-(2-Furyl)-9-(4-methoxyphenylmethyl)-2-trifluoromethyl-9H-purine]",149 to 150 °C
22,"COc1ccc(Cn2c(Cl)nc3c(-c4ccco4)ncnc32)cc1 [Example 99, 8-Chloro-6-(2-furyl)-9-(4-methoxyphenylmethyl)-9H-purine]",156 to 157 °C
23,"COc1ccc(Cn2c(Br)nc3c(-c4ccco4)ncnc32)cc1 [Example 101, 8-Bromo-6-(2-furyl)-9-(4-methoxyphenylmethyl)-9H-purine]",150 to 151 °C
24,"COc1ccc(Cn2c(-c3ccco3)nc3c(-c4ccco4)ncnc32)cc1 [Example 103, 6,8-Di(2-furyl)-9-(4-methoxyphenylmethyl)-9H-purine]",134 to 136 °C
25,"COc1ccc(Cn2c(OC)nc3c(-c4ccco4)ncnc32)cc1 [Example 104, 6-(2-Furyl)-8-methoxy-9-(4-methoxyphenylmethyl)-9H-purine]",143 to 144 °C
26,"COc1ccc(Cn2c(O)nc3c(-c4ccco4)ncnc32)cc1 [Example 105, 6-(2-Furyl)-8-hydroxy-9-(4-methoxyphenylmethyl)-9H-purine]",249 to 251 °C

# Tested on: Mycobacterium tuberculosis H37Rv (ATCC 27294)
# Test: Microplate Alamar Blue Assay (MABA): primary screening and MIC determination
# Format: cell-based
# Conditions: Mycobacterium tuberculosis; retest at lower concentrations in the MABA; read-out: MIC
row,Molecule,MIC [µg/mL]
1,"Clc1ccc(Cn2cnc3c(-c4ccco4)ncnc32)cc1 [Example 27, 9-(4-Chlorophenylmethyl)-6-(2-furyl)-9H-purine]",6.25
2,"Clc1ccc(Cn2cnc3c(-c4ccco4)ncnc32)cc1Cl [Example 28, 9-(3,4-Dichlorophenylmethyl)-6-(2-furyl)-9H-purine]",6.25
3,"Fc1ccc(Cn2cnc3c(-c4ccco4)ncnc32)cc1 [Example 29, 9-(4-Fluorophenylmethyl)-6-(2-furyl)-9H-purine]",6.25
4,"Cc1ccc(Cn2cnc3c(-c4ccco4)ncnc32)cc1 [Example 31, 6-(2-Furyl)-9-(4-methylphenylmethyl)-9H-purine]",3.13
5,"CC(C)(C)c1ccc(Cn2cnc3c(-c4ccco4)ncnc32)cc1 [Example 32, 9-(4-tert-Butylphenylmethyl)-6-(2-furyl)-9H-purine]",12.5
6,"COc1cccc(Cn2cnc3c(-c4ccco4)ncnc32)c1 [Example 34, 6-(2-Furyl)-9-(3-methoxyphenylmethyl)-9H-purine]",6.25
7,"COc1ccc(Cn2cnc3c(-c4ccco4)ncnc32)cc1C [Example 35, 6-(2-Furyl)-9-(4-methoxy-3-methylphenylmethyl)-9H-purine]",0.78
8,"CCOc1ccc(Cn2cnc3c(-c4ccco4)ncnc32)cc1 [Example 39, 9-(4-Ethoxyphenylmethyl)-6-(2-furyl)-9H-purine]",3.13
9,"c1ccc(COc2ccc(Cn3cnc4c(-c5ccco5)ncnc43)cc2)cc1 [Example 40, 9-(4-Benzyloxyphenylmethyl)-6-(2-furyl)-9H-purine]",1.56
10,"Clc1ccc(Cn2cnc3c(-c4ccco4)nc(Cl)nc32)cc1 [Example 46, 2-Chloro-9-(4-chlorophenylmethyl)-6-(2-furyl)-9H-purine]",1.56

# Same assay, conditions: retest at lower concentrations in the MABA
row,Molecule,MIC [µg/mL]
1,2-Chloro-6-(2-furyl)-9-(4-methyloxyphenylmethyl)-9H-purine [Example 50],0.78
2,2-Cyclopentenyl-6-(2-furyl)-9-(4-methoxyphenylmethyl)-9H-purine [Example 81],6.25
